Experimental findings from paper PMC12040169 (PLOS Biology, 2025) are described below.

This series in a line: in vitro. The following applies: human, hela cells, % viability.

Turning to `NC(=O)CN1C(=O)CO[C@H]2CN(Cc3ccccc3F)C[C@H]21` [CBK289693], the viability – broadly, a read-out of living cells in per cent, often relative to untreated cells – at 28.5 h, 10 µM came to 114%.

As for `COC(C)(C)C(=O)N1CCCC(c2ccc(Cc3cccc(C(F)(F)F)c3)cn2)C1` (stereo not shown) [CBK286124], the viability at 28.5 h, 10 µM was determined as 107%. On the same count and under the same terms, in the case of `COc1ccc(CC(=O)N2CCCC2c2cccc(Cc3cccc(F)c3)n2)cc1` (stereo not shown) [CBK286220] it was 108%; in that of `Cc1cc(C)n2nc(C(=O)N3CCC(C)CC3c3ccco3)nc2n1` (stereo not shown) [CBK305196], 84.8%; in that of `O=C(c1c[nH]c2ccccc12)C(O)C(c1ccccc1)N1CCCCC1` (stereo not shown) [CBK267799], 94.1%. The same measure, in the same setting: under `CCOC(=O)NC(=S)NCCCn1ccnc1` [CBK018272] stands 112%; under `COc1ccc(C(=O)N2CCC3(CCN(C(=O)Cc4cc(C)no4)C3)C2)cc1OC` (stereo not shown) [CBK131784], 106%.

Consider `CCN1CCN(c2ncnc3c2cnn3-c2cccc(C)c2)CC1` [CBK265814], for which the viability at 28.5 h, 10 µM is 93.8%.

Consider `COc1ncc(-c2nccnc2NCc2cccc(OC)c2OC)c(OC)n1` [CBK037506], for which the viability at 28.5 h, 10 µM stood at 76.9%. Turning to `CSc1nc(N)n(-c2cc(C(F)(F)F)cc(C)n2)n1` [CBK005941], the viability at 28.5 h, 10 µM is 89.9%. The same measure, in the same setting: in the case of `CCOc1ccccc1NC(=O)CN(c1cc(C(F)(F)F)ccc1Cl)S(C)(=O)=O` [CBK264627] it was 84.7%; in that of `O=C(COc1ccc(Cl)cc1)NCCc1ccc(S(=O)(=O)NC(=O)NC2CCCCC2)cc1` [CBK013261], 92.4%; in that of `Cc1ccc(CNC(=O)CCC(=O)O)cc1` [CBK058951], 120%. Regarding `COCCn1c(SCc2c(C)nc3ccccn23)nc(C)c1C` [CBK305212], the viability at 28.5 h, 10 µM was determined as 80.1%.

Regarding `CC(=O)N1CCC2(C/C=C/C[C@H]3CN(Cc4nccs4)CC[C@H]3NC(=O)CNC2=O)CC1` [CBK292169], the viability at 28.5 h, 10 µM is 111%. The same measure, in the same setting: in the case of `CC(C)(N)CN(Cc1ccc(Cl)cc1)C(=O)Nc1ccccc1-c1ccccc1` [CBK004924] it was 105%; in that of `c1ccc(-c2csc3ncnc(-n4cnc5ccccc54)c23)cc1` [CBK264494], 109%. Still for that read-out and setting: in the case of `Cc1ccc(-c2nn(-c3cc(N4CCN(CCO)CC4)ccc3[N+](=O)[O-])c(=O)c3ccccc23)cc1C` [CBK263713] it was 82.6%; in that of `CCCCNC(=O)c1nnc(C(=O)Nc2cccc(Cl)c2)s1` [CBK294407], 87.1%.

For `CC1(NC(=O)c2cccc(OCCN3CCCC3=O)c2)CCC1` [CBK281602], the viability at 28.5 h, 10 µM amounted to 92.8%. Same read-out and setting: in the case of `c1cnc(OC2CCN(CC3CCCCC3)CC2)c(OCCN2CCOCC2)n1` [CBK082941T] it was 87.3%; in that of `C/C(CCc1ccccc1)=N\NC(=O)c1ccc(CN2CCOCC2)cc1` [CBK262752], 99.5%; in that of `Nc1cccc(Oc2ccc(C(=O)O)c(C(=O)O)c2)c1` [CBK261180], 89.4%. On the same count and under the same terms, in the case of `Cc1ccccc1NC(=O)/C(=C\c1cccnc1)NC(=O)c1ccccc1` [CBK261632] it was 93.9%. As to `CCCc1[nH]nc(O)c1Cc1c(F)cccc1[N+](=O)[O-]` [CBK075029], the viability at 28.5 h, 10 µM is 89.5%. On the same count and under the same terms, in the case of `Cc1cc(C)c2c(N)c(C(=O)C(C)(C)C)sc2n1` [CBK115341] it was 81.3%; in that of `Cc1ccc(C(=O)C2=C(O)C(=O)N(CCCN(C)C)C2c2ccccn2)o1` (stereo not shown) [CBK269575], 89.1%. Same read-out and setting: in the case of `CN(C)CCCC(=O)Nc1ccc2ncccc2c1` [CBK159824] it was 83.4%; in that of `Cc1ccc(S(=O)(=O)CC(=O)N2CCCC3(CCN(C(=O)c4cc(F)c(F)cc4F)C3)C2)cc1` (stereo not shown) [CBK131558], 99%; in that of `Cc1cc(-c2cccs2)c(C#N)c(SCc2cccnc2)n1` [CBK270172], 81%. On the same count and under the same terms, in the case of `O=C(CCC1COc2ccccc2O1)N1CCN(Cc2ccccc2)CC1` (stereo not shown) [CBK269767] it was 93.7%. With `COCCNc1nc(-c2cccc(-c3ccccc3)c2)cnc1N` [CBK063474], the viability at 28.5 h, 10 µM turned out to be 99.5%. The same measure, in the same setting: under `Cn1c(=O)c2c(ncn2CC(=O)NCCOc2ccccc2)n(C)c1=O` [CBK304654] stands 95.5%.

Turning to `CC1CC(C)CN(C(=O)Cn2c(-c3nonc3N)nc3ccccc32)C1` (stereo not shown) [CBK264694], the viability at 28.5 h, 10 µM is 89.7%. As to `COc1c(C(=O)O)cc(C)c2c1CCC2C` (stereo not shown) [CBK013617], the viability at 28.5 h, 10 µM came out at 101%.

As to `Cn1c(SCC(=O)Nc2ccc(Br)cc2C(F)(F)F)nnc1-c1ccncc1` [CBK265905], the viability at 28.5 h, 10 µM turned out to be 84.4%. For the molecule `CC(C)(C)OC(=O)N1CCC2(CC1)OCc1cc(-c3ccc(S(C)(=O)=O)nc3)ccc1O2` [CBK159619], the viability at 28.5 h, 10 µM (bulk resorufin, single well) amounted to 83.6%. Take `COc1ccccc1-c1cnc(N)c(N2CCN(CCO)CC2)n1` [CBK063403]: the viability at 28.5 h, 10 µM worked out at 96.1%. Same read-out and setting: in the case of `CC(=O)NCCNS(=O)(=O)c1ccc(C(C)C)cc1` [CBK043726] it was 92.5%. Still for that read-out and setting: under `COc1ccc(-c2cc3n[nH]c(=O)n3c(C)n2)cc1` [CBK288439] stands 91.1%; under `COCc1cc(C[C@@H]2C[C@H](NS(C)(=O)=O)C2(C)C)no1` [CBK289252], 92.5%; under `Cc1ccc(C)c(NC(=O)CC2C(=O)N(c3ccccc3)C(=S)N2Cc2ccco2)c1` (stereo not shown) [CBK267119], 94.3%. On the same count and under the same terms, in the case of `Cc1ccc(C(=O)N2CCC(C(=O)NC(c3ccccc3)c3ccsc3)CC2)cc1` (stereo not shown) [CBK060154] it was 109%; in that of `Oc1cccnc1CCc1ccccc1` [CBK026334C], 100%; in that of `O=C(COc1cccnc1)N1CCN(c2ccccc2)CC1` [CBK200210], 106%. Regarding `Cc1c(Cl)cccc1S(=O)(=O)N1CCCN(c2nc3ccc(Cl)cc3s2)CC1` [CBK014131], the viability at 28.5 h, 10 µM was found to be 95.6%.

Take `Cc1nc(-c2ccccc2)nc2c1c(N)nn2CC(=O)O` [CBK287109]: the viability at 28.5 h, 10 µM was determined as 95.1%. Same read-out and setting: in the case of `COCc1nnc(NS(=O)(=O)c2ccc(Br)cc2)s1` [CBK045526] it was 115%. On the same count and under the same terms, in the case of `CCN(CC)C(=O)CNS(=O)(=O)c1ccc(OC)c(OC)c1` [CBK034499] it was 103%; in that of `CC(C)(C)c1ccc(S(=O)(=O)N2CCSC2)cc1` [CBK095672], 101%. Same read-out and setting: under `Cc1[nH]c2ccccc2c1CCNC(=O)N(Cc1cnn(C)c1)C1CC1` [CBK306661] stands 89%. On to `CCCc1cc(C(=O)OC)c(NC(=O)C2C3CCC(C3)C2C(=O)O)s1` (stereo not shown) [CBK057885], for which the viability at 28.5 h, 10 µM amounted to 98.5%.

Consider `O=C(Nc1ccncc1)c1ccc(S(=O)(=O)N2CCCC2)cc1` [CBK287786], for which the viability at 28.5 h, 10 µM turned out to be 106%. On to `O=C1NC2(CCN(C(=O)Cc3ccc(F)cc3)CC2)Oc2ccc(-c3ccccc3)cc21` [CBK115832], for which the viability at 28.5 h, 10 µM was found to be 93.5%. Same read-out and setting: in the case of `Nc1ccc(-c2ccccc2)c2ccccc12` [CBK084312] it was 97.1%; in that of `C/C(=N\O)c1ccc(S(N)(=O)=O)cc1` [CBK007871], 100%.

Consider `O=C(O)/C=C/c1cccc(-c2cncc(N3CCN(Cc4ccccn4)CC3)n2)c1` [CBK066085], for which the viability at 28.5 h, 10 µM is 96%. Same read-out and setting: in the case of `CCn1c(=N)n(CC(=O)O)c2ccccc21` [CBK262906B] it was 94%.
